Drawing on patent publication US11407736B2 (priority 2019, dated 2022), this text covers IC50 for 20 compounds.

One assay concerns the target RIPK1 (Homo sapiens (Human), UniProt Q13546). The assay can be described thus: RIPK1 ADP-Glo biochemical kinase assay. The protocol: The final reaction volume was 5.0ul.
Adding 5 μl of ADP-Glo™ terminated the reaction.
Background: ADP-Glo first removes unused ATP, then detects ADP through luciferase.

The next assay relates to U937 cells. The assay can be described thus: U937 cell necroptosis assay (TNFa + zVAD, CellTiter-Glo). Format: cell-based, human. Conditions: Homo sapiens, U-937, U937 cells, TNFa + zVAD; read-out: U937 Zvad TNF CTG Recovery, U937, TNFa + zVAD (IC50). Put shortly: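 Human U937 and murine L929 cells in RPMI 1640/10% FBS were pre-incubated 1 h at 37 °C with serially diluted compound plus zVAD-fmk (U937 plated with 60 uM, L929 medium with 40 uM), then stimulated with 2 ng/mL TNFa (final). Viability read by CellTiter-Glo luminescence after 18 h.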
In general terms: ATP-based viability assays read luminescence as a measure of living cells.

The test system of the next assay is L929 cells. Kind of assay: L929 cell necroptosis assay (TNFa + zVAD, CellTiter-Glo). The assay is classed as cell-based, murine. Conditions: Mus musculus, TNFa + zVAD, read-out: L929-CTG-recovery, L929, TNFa + zVAD (IC50). Put shortly:
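Murine L929 cells, plated 18 h beforehand at 10K cells/well in RPMI 1640 with 10% FBS, were switched to medium containing 40 uM zVAD-fmk and given compound from 4-fold serial dilutions. Viability after 18 h of TNFa stimulation at 37° C was read by CellTiter-Glo luminescence.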

[1] abbreviates: read-out: RIPK1 ADP-Glo Kinase (IC50).

Like-named read-outs stand apart in the source and are kept apart here.

RIPK1, sequence (Q13546 whole entry, species assumed): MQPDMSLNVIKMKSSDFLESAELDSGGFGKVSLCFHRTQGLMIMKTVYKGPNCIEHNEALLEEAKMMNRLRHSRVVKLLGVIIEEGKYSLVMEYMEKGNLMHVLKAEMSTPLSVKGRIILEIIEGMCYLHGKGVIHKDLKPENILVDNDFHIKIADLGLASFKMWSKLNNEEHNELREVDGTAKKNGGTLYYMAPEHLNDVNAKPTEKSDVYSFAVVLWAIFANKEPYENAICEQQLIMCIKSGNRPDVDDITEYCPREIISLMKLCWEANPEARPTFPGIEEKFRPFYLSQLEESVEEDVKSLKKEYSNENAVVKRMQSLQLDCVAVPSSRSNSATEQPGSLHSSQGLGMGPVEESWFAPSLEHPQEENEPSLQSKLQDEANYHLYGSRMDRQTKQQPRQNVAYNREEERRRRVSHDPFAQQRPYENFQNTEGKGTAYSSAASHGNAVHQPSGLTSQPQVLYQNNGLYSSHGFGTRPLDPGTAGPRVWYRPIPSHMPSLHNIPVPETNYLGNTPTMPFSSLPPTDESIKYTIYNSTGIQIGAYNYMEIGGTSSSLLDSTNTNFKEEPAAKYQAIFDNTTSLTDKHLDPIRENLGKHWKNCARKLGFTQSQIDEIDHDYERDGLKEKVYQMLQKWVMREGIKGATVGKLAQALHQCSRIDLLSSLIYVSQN

Usually IC50 stands for the concentration at which inhibition is half-maximal. With `CN1C(=O)[C@@H](NC(=O)c2ncn(Cc3ccccc3)n2)COc2ccc(C#CCCOc3ccc4cccnc4c3)cc21` [Compound I-42, (S)-1-benzyl-N-(5-methyl-4-oxo-7-(4-(quinolin-7-yloxy)but-1-yn-1-yl)-2,3,4,5-tetrahydrobenzo[b][1,4]oxazepin-3-yl)-1H-1,2,4-triazole-3-carboxamide], the IC50 at RIPK1 (setting [1]) was 47.7 nM; in the assay with U937 cells, 3.3 nM; in the assay with L929 cells (L929, L929 cells), 1.2 nM.
For `CN1C(=O)[C@@H](NC(=O)c2n[nH]c(Cc3ccccc3)n2)COc2ccc(CCC(C)(C)O)cc21` [Compound I-28, (S)-5-benzyl-N-(7-(3-hydroxy-3-methylbutyl)-5-methyl-4-oxo-2,3,4,5-tetrahydrobenzo[b][1,4]oxazepin-3-yl)-1H-1,2,4-triazole-3-carboxamide], in that order: 37.5 nM, 5.4 nM and 674 nM.
The like results for `CN1C(=O)[C@@H](NC(=O)n2ccc(Cc3ccc(F)cc3)n2)COc2ccc(C#CC3(O)CCC3)cc21` [Compound I-223, (S)-3-(4-Fluorobenzyl)-N-(7-((1-hydroxycyclobutyl)ethynyl)-5-methyl-4-oxo-2,3,4,5-tetrahydrobenzo[b][1,4]oxazepin-3-yl)-1H-pyrazole-1-carboxamide] were, in that order, 141 nM, 627 nM and 10300 nM.
For the compound `CN1C(=O)[C@@H](NC(=O)n2cc(Cc3ccc(F)cc3)cn2)COc2ccc(C#CC3(O)COC3)cc21` [Compound I-222, (S)-4-(4-Fluorobenzyl)-N-(7-((3-hydroxyoxetan-3-yl)ethynyl)-5-methyl-4-oxo-2,3,4,5-tetrahydrobenzo[b][1,4]oxazepin-3-yl)-1H-pyrazole-1-carboxamide], the IC50 on RIPK1 (setting [1]) is 16.6 nM; with U937 cells, 1.4 nM; with L929 cells (L929, L929 cells), 62.5 nM.
For `CN1C(=O)[C@@H](NC(=O)c2n[nH]c(Cc3ccc(F)cc3F)n2)COc2ccc(C#CC(C)(C)O)cc21` [Compound I-43, (S)-5-(2,4-difluorobenzyl)-N-(7-(3-hydroxy-3-methylbut-1-yn-1-yl)-5-methyl-4-oxo-2,3,4,5-tetrahydrobenzo[b][1,4]oxazepin-3-yl)-1H-1,2,4-triazole-3-carboxamide], in that order: 85.4 nM, 3.8 nM and 0.9 nM.
For `CC(C)CCc1ccc2c(c1)N(C)C(=O)[C@@H](NC(=O)c1cc(Oc3ccccc3)ccn1)CO2` [Compound I-108, (S)—N-(7-isopentyl-5-methyl-4-oxo-2,3,4,5-tetrahydrobenzo[b][1,4]oxazepin-3-yl)-4-phenoxypicolinamide], in that order: 314 nM, 8.8 nM and 2310 nM.
The like results for `CN1C(=O)[C@@H](NC(=O)c2cc(Oc3cccc(F)c3)ccn2)COc2ccc(C#CC(C)(C)C)cc21` [Compound I-106, (S)—N-(7-(3,3-dimethylbut-1-yn-1-yl)-5-methyl-4-oxo-2,3,4,5-tetrahydrobenzo[b][1,4]oxazepin-3-yl)-4-(3-fluorophenoxy)picolinamide] were, in that order, 582 nM, 5.5 nM and 481 nM.
With `CN1C(=O)[C@@H](NC(=O)c2n[nH]c(Cc3ccccc3)n2)COc2ccc(C#CC3(O)CCOCC3)cc21` [Compound I-55, (S)-5-benzyl-N-(7-((4-hydroxytetrahydro-2H-pyran-4-yl)ethynyl)-5-methyl-4-oxo-2,3,4,5-tetrahydrobenzo[b][1,4]oxazepin-3-yl)-1H-1,2,4-triazole-3-carboxamide], the IC50 was found to be 33.7 nM on RIPK1 (setting [1]); 2 nM in the assay on U937 cells; 0.6 nM in the assay with L929 cells (L929, L929 cells).
With `CN1C(=O)[C@@H](NC(=O)c2cc(OC3CCC3)ccn2)COc2ccc(C#CC3(O)COC3)cc21` [Compound I-153, (S)-4-cyclobutoxy-N-(7-((3-hydroxyoxetan-3-yl)ethynyl)-5-methyl-4-oxo-2,3,4,5-tetrahydrobenzo[b][1,4]oxazepin-3-yl)picolinamide], the concentration for half-maximal inhibition (IC50) at RIPK1 (setting [1]) was determined as 32.6 nM; in the assay on U937 cells it was 16.1 nM; in the assay with L929 cells (L929, L929 cells) it was 1240 nM.
Regarding `CN1C(=O)[C@@H](NC(=O)c2n[nH]c(Cc3ccccc3)n2)COc2ccc(C#CC(C)(C)O)cc21` [Compound I-30, (S)-5-benzyl-N-(7-(3-hydroxy-3-methylbut-1-yn-1-yl)-5-methyl-4-oxo-2,3,4,5-tetrahydrobenzo[b][1,4]oxazepin-3-yl)-1H-1,2,4-triazole-3-carboxamide], the IC50 at RIPK1 came to 40.2 nM; with U937 cells, 3.6 nM; in the assay on L929 cells (L929, L929 cells) it was 72.3 nM.
For the compound `CN1C(=O)[C@@H](NC(=O)n2cc(Cc3ccccc3)cn2)COc2ccc(C#CC(C)(C)C)cc21` [Compound I-212, (S)-4-Benzyl-N-(7-(3,3-dimethylbut-1-yn-1-yl)-5-methyl-4-oxo-2,3,4,5-tetrahydrobenzo[b][1,4]oxazepin-3-yl)-1H-pyrazole-1-carboxamide], the IC50 on RIPK1 (setting [1]) was 154 nM; in the assay on U937 cells it was 4.3 nM; in the assay with L929 cells (L929, L929 cells), 267 nM.
On to `C#Cc1ccc2c(c1)N(C)C(=O)[C@@H](NC(=O)c1n[nH]c(Cc3ccccc3)n1)CO2` [Compound I-81, (S)-5-benzyl-N-(7-ethynyl-5-methyl-4-oxo-2,3,4,5-tetrahydrobenzo[b][1,4]oxazepin-3-yl)-1H-1,2,4-triazole-3-carboxamide], for which the IC50 on RIPK1 (setting [1]) was found to be 19 nM; with U937 cells it was 4.2 nM; in the assay with L929 cells (L929, L929 cells), 1.2 nM.
For the compound `CN1C(=O)[C@@H](NC(=O)c2cc(Oc3ccccc3)ccn2)COc2ccc(C#Cc3cccc(C#N)n3)cc21` [II-33, (S)—N-(7-((6-cyanopyridin-2-yl)ethynyl)-5-methyl-4-oxo-2,3,4,5-tetrahydrobenzo[b][1,4]oxazepin-3-yl)-4-phenoxypicolinamide], the IC50 is 101 nM at RIPK1 (setting [1]); 1.8 nM in the assay on U937 cells; 33.1 nM in the assay with L929 cells (L929, L929 cells).
The like results for `CN1C(=O)[C@@H](NC(=O)c2ncn(Cc3ccccc3)n2)COc2ccc(C#CCCOc3cccc4ncccc34)cc21` [Compound I-44, (S)-1-benzyl-N-(5-methyl-4-oxo-7-(4-(quinolin-5-yloxy)but-1-yn-1-yl)-2,3,4,5-tetrahydrobenzo[b][1,4]oxazepin-3-yl)-1H-1,2,4-triazole-3-carboxamide] were, in that order, 34 nM, 1.1 nM and 0.2 nM.
The like results for `COC1(C#Cc2ccc3c(c2)N(C)C(=O)[C@@H](NC(=O)c2cc(Oc4ccccc4)ccn2)CO3)CNC1` [Compound I-154, (S)—N-(7-((3-methoxyazetidin-3-yl)ethynyl)-5-methyl-4-oxo-2,3,4,5-tetrahydrobenzo[b][1,4]oxazepin-3-yl)-4-phenoxypicolinamide] were, in that order, 26.7 nM, 3.5 nM and 656 nM.
In the case of `CCN(C(=O)c1n[nH]c(Cc2ccccc2)n1)[C@H]1COc2ccc(C#CC(C)(C)O)cc2N(C)C1=O` [Compound I-86, (S)-5-benzyl-N-ethyl-N-(7-(3-hydroxy-3-methylbut-1-yn-1-yl)-5-methyl-4-oxo-2,3,4,5-tetrahydrobenzo[b][1,4]oxazepin-3-yl)-1H-1,2,4-triazole-3-carboxamide], the half-maximal inhibitory concentration (IC50) at RIPK1 (setting [1]) was determined as 616 nM; with U937 cells, 4.1 nM; in the assay with L929 cells (L929, L929 cells), 0.6 nM.
For `CN1C(=O)[C@@H](NC(=O)c2n[nH]c(Cc3ccccc3)n2)COc2ccc(C#CCCOc3cccc4ncccc34)cc21` [Compound I-45, (S)-5-benzyl-N-(5-methyl-4-oxo-7-(4-(quinolin-5-yloxy)but-1-yn-1-yl)-2,3,4,5-tetrahydrobenzo[b][1,4]oxazepin-3-yl)-1H-1,2,4-triazole-3-carboxamide], in that order: 82.5 nM, 1.4 nM and 0.3 nM.
`CN1C(=O)[C@@H](NC(=O)c2cc(Oc3ccc(F)cc3)ccn2)COc2ccc(C#CC(C)(C)O)cc21` [Compound I-100, (S)-4-(4-fluorophenoxy)-N-(7-(3-hydroxy-3-methylbut-1-yn-1-yl)-5-methyl-4-oxo-2,3,4,5-tetrahydrobenzo[b][1,4]oxazepin-3-yl)picolinamide]: the IC50 on RIPK1 (setting [1]) came to 39.2 nM; with U937 cells it was 8.3 nM; in the assay on L929 cells (L929, L929 cells) it was 263 nM.
As for `CN1C(=O)[C@@H](NC(=O)c2cc(Oc3ccccc3)ccn2)COc2ccc(N3CC4(CCOCC4)C3)cc21` [II-28, (S)—N-(5-methyl-4-oxo-7-(7-oxa-2-azaspiro[3.5]nonan-2-yl)-2,3,4,5-tetrahydrobenzo[b][1,4]oxazepin-3-yl)-4-phenoxypicolinamide], the IC50 was determined as 16.1 nM at RIPK1 (setting [1]), 8.3 nM in the assay with U937 cells and 2220 nM with L929 cells (L929 cells).
Take `CN1C(=O)[C@@H](NC(=O)c2cc(Oc3ccccc3F)ccn2)COc2ccc(C#CC(C)(C)C)cc21` [Compound I-102, (S)—N-(7-(3,3-dimethylbut-1-yn-1-yl)-5-methyl-4-oxo-2,3,4,5-tetrahydrobenzo[b][1,4]oxazepin-3-yl)-4-(2-fluorophenoxy)picolinamide]: the IC50 on RIPK1 (setting [1]) amounted to 383 nM; with U937 cells, 27.3 nM; in the assay with L929 cells (L929, L929 cells), 397 nM.
